Source: patent publication US20150099800A1, “NOVEL LIPASE INHIBITORS, REPORTER SUBSTRATES AND USES THEREOF” (Northeastern University, priority 2012, published 2015)
Like-named read-outs stand apart in the source and are kept apart here.

Experiments:
[1] = Stability of FRET reporter substrates to uncatalyzed hydrolysis; assay type: physicochemical
Text: (§1) A convenient in vitro fluorometric esterase assay utilizing the BioTek Instruments Synergy™ HT Multi-Mode Microplate 96-well reader was developed that measured nanomolar concentrations of fluorescent reaction product.

[2] = target: T1, hDAGLα (Homo sapiens, UniProt Q9Y4D2); assay: Evaluation of FRET reporter substrates for enzymatic hydrolysis; assay type: biochemical; parameters: V5; His; expressed in transfected cells; host or cells: HEK293T, transient; crude cell lysate or membrane preparation
T1 sequence (Q9Y4D2 1-1042): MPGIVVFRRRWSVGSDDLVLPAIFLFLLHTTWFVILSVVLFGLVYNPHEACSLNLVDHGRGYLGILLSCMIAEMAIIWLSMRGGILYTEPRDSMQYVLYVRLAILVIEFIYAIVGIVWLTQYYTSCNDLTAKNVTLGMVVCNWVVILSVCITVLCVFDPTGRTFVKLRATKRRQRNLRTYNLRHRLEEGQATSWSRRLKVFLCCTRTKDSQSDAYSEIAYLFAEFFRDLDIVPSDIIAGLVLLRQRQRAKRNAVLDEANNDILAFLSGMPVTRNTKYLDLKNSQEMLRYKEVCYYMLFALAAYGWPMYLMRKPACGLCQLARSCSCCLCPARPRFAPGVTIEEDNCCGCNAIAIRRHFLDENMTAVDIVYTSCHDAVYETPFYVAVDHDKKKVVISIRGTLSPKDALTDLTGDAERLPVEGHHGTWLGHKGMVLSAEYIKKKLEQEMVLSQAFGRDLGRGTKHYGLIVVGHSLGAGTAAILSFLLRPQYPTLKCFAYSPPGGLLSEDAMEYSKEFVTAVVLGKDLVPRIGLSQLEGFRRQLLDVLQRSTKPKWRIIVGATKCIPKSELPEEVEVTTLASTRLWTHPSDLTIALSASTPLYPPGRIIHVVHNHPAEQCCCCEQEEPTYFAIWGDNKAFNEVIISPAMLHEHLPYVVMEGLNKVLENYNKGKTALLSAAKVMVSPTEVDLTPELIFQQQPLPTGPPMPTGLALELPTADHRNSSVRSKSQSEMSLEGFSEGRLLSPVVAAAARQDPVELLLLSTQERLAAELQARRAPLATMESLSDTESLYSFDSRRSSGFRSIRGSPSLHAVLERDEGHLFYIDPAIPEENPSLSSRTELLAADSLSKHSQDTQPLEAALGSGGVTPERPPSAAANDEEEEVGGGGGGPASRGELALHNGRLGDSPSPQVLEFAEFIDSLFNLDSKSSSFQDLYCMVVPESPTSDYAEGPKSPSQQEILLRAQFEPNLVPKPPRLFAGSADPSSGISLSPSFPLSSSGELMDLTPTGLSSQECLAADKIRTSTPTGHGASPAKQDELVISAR
Text: Reporter compounds as substrates for hDAGLα activity with HEK293T cell lysates in the presence of 10% DMSO are shown. A) Pyrenyl analogs (17)-(19), (21), and (22) (EX 320 nm, EM 400 nm). B) NBD analog (20) (EX 485 nm, EM 535 nm).
as §1

[3] = tested on: Lipoprotein Lipase (Bacterial); assay type: biochemical, Pseudomonas sp.
[4] = target: T2, Pancreatic Lipase (Porcine) (Sus scrofa, UniProt P00591); assay type: biochemical; details: read-out: Pancreatic Lipase (Porcine) inhibition at 10 μM (%)
T2 construct: purchased Sigma L3126
T2 sequence (P00591 1-450): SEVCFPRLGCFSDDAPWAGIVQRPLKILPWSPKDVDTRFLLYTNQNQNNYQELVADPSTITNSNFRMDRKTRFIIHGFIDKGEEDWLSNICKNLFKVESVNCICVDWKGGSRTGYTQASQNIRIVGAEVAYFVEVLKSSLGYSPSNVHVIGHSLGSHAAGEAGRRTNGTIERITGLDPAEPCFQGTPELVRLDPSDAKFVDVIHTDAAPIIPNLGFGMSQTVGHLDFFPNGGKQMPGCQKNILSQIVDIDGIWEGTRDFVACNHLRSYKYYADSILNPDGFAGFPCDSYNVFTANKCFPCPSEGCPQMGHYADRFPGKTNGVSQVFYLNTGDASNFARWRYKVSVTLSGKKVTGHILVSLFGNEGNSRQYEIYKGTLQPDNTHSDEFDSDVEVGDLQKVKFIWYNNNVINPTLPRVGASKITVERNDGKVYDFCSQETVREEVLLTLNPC

[5] = tested on: cannabinoid receptors; details: cited from earlier work
[6] = target: T3, MAGL (Homo sapiens, UniProt Q99685); details: cited from earlier work
T3 sequence (Q99685 1-303): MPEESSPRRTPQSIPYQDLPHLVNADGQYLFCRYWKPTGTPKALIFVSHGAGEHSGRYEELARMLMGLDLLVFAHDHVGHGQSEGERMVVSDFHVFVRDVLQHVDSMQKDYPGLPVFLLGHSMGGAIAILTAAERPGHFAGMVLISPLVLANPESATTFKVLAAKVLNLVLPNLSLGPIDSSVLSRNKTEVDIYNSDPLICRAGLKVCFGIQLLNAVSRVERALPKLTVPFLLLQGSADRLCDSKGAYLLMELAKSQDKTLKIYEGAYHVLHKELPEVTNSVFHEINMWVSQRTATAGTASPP

[7] = target: T1, hDAGLα; assay: biochemical
[8] = target: T4, mDAGLα (Mus musculus, UniProt Q6WQJ1); assay: Radio-TLC assay with [14C]SAG substrate, mDAGLα; details: read-out: mDAGLα inhibition at 10000 nM (%)
T4 sequence (Q6WQJ1 1-1044): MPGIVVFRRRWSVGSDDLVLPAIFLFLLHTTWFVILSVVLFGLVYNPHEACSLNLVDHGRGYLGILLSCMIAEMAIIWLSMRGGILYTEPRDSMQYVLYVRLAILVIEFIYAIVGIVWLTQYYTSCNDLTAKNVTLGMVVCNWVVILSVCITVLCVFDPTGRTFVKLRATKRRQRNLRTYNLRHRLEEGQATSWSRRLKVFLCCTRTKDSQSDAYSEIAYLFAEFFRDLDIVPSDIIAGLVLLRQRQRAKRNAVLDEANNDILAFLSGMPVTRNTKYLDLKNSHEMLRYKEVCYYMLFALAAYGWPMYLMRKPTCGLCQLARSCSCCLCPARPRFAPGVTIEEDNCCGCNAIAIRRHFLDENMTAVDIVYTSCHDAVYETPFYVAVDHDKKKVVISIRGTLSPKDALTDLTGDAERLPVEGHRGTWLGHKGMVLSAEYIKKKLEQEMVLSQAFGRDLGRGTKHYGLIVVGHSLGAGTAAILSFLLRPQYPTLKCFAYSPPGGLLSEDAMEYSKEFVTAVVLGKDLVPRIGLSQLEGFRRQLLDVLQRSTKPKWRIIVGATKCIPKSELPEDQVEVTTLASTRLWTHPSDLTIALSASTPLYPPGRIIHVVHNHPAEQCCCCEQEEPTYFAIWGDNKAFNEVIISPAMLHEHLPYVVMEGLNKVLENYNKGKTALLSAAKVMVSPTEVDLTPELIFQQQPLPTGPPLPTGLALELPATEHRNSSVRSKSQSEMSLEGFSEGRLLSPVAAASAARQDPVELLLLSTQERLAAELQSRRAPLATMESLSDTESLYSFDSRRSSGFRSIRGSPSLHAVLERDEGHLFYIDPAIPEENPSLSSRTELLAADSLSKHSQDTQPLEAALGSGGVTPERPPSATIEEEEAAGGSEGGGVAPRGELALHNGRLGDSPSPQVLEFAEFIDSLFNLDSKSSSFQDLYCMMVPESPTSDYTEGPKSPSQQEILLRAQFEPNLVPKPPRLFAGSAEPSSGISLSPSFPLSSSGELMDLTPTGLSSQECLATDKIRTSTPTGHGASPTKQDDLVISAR

[9] = target: T3, MAGL; assay: hMAGL coumarin substrate fluorescence assay; assay type: biochemical; parameters: The N-terminal his-tagged full length human monoacylglycerol lipase used; His (N); made in house; host or cells: E. coli; details: read-out: hMAGL inhibition at 10 μM (%)

stability to uncatalyzed hydrolysis at neutral pH [1]	quality as substrate for enzymatic hydrolysis [2]	SMILES	Lipoprotein Lipase (Bacterial) inhibition at 10 μM (%) [3]	inhibition at 10 µM [4]	binding to the cannabinoid receptors, previous reports [5]	inhibition of MAGL activity reported in the literature [6]	inhibition at 10 µM ([7]; read-out: hDAGLα inhibition at 10 μM detergent free (%), FRET)	inhibition at 10 µM ([7]; read-out: hDAGLα inhibition at 10 μM detergent free (%), FRET, marker °)	inhibition at 10 µM [8]	inhibition at 10 µM [9]
stable	best enzyme substrates	COC[C@@H](COC(=O)CCCc1ccc2ccc3cccc4ccc1c2c34)OC(=O)CCCCCNc1ccc([N+](=O)[O-])cc1[N+](=O)[O-] [Compound 18, 1-Pyrenebutanoyl-2-((2,4-dinitrophenyl)amino)hexanoyl-3-methyl-sn-glycerol]	–	–	–	–	–	–	–	–
–	–	NC(=O)c1cccc(-c2cccc(OC(=O)NC3CCCCC3)c2)c1 [URB597]	21%	68%	did not bind	poor inhibitors	22%	7%	< 0%	18%
stable	best enzyme substrates	COC[C@@H](COC(=O)CCCCCNc1ccc([N+](=O)[O-])cc1[N+](=O)[O-])OC(=O)CCCc1ccc2ccc3cccc4ccc1c2c34 [Compound 17, 1-((2,4-Dinitrophenyl)amino)hexanoyl-2-pyrenebutanoyl-3-methyl-sn-glycerol]	–	–	–	–	–	–	–	–
